As a reminder, the IC50 is the concentration at which inhibition is half-maximal.

This passage reports IC50 results from US9670227B2, “Thienopyrimidine derivatives, a process for their preparation and pharmaceutical compositions containing them” (LES LABORATOIRES SERVIER, priority 2013, dated 2017).

Each structure is given as a SMILES string. Read-outs that look alike come from different tables or passages of the source.

Experiment [1] deals with H929 multiple myeloma tumour line. The experiment is described as follows: In vitro cytotoxicity, Microculture Tetrazolium Assay. Type of experiment: cell-based. The settings on record: H929 cells, 48 hours exposure, MTT, read-out: IC50 (μM) MTT H929. As to the method:
The cytotoxicity studies were carried out on the H929 multiple myeloma tumour line.
The cells are distributed onto microplates and exposed to the test compounds for 48 hours.

The next experiment has as its target Mcl-1 protein (UniProtKB primary accession number: Q07820) (Homo sapiens, UniProt Q07820). The experiment is described as follows: Inhibition of Mcl-1 by fluorescence polarisation, Method 1. The conditions noted are these: read-out: IC50 (M) Mcl-1 FP. Type of experiment: binding. An outline of the steps:
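Compounds were tested as 11-point serial dilutions at 5% final DMSO against 5 nM Mcl-1 with 1 nM fluorescein-labelled ligand in 10 mM HEPES, 150 mM NaCl, 0.05% Tween 20, pH 7.4. Relative binding potency was read by fluorescence polarisation.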

Setting [2] is: fluorescence polarisation test, Method 2 values are underlined in the patent (underlining not visible here).
[3] abbreviates: fluorescence polarisation, Method 1, or Method 2.

Chain of Mcl-1 protein (Q07820 whole entry): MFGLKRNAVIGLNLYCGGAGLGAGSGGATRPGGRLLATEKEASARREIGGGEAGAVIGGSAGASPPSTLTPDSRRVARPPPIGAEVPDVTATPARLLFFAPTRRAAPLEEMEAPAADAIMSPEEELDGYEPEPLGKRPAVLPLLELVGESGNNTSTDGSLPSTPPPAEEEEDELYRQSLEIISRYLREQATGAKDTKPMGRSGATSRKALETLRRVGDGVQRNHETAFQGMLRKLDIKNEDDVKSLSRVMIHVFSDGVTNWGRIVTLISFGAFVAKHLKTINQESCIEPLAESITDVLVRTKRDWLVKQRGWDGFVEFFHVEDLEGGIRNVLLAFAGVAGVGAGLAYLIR

Take `Cc1c(-c2c(-c3ccco3)sc3ncnc(OC(Cc4ccccc4OCc4ccnn4C(C)C)C(=O)O)c23)ccc(OCCN2CCN(C)CC2)c1Cl` [Example 261, (2R)-2-{[(5Sa)-5-{3-chloro-2-methyl-4-[2-(4-methylpiperazin-1-yl)ethoxy]phenyl}-6-(furan-2-yl)thieno[2,3-d]pyrimidin-4-yl]oxy}-3-(2-{[1-(propan-2-yl)-1H-pyrazol-5-yl]methoxy}phenyl)propanoic acid]: the IC50 in experiment [1] (Homo sapiens, NCI-H929, 48 h) worked out at 0.018 µM; on Mcl-1 protein (setting [2]), 1.7e-09 M.

For `COc1ccccc1CC(Oc1ncnc2sc(-c3cc(F)c(F)c(OC)c3)c(-c3ccc(OCCN4CCN(C)CC4)c(Cl)c3C)c12)C(=O)O` [Example 524, (2R)-2-{[(5Sa)-5-{3-chloro-2-methyl-4-[2-(4-methylpiperazin-1-yl)ethoxy]phenyl}-6-(3,4-difluoro-5-methoxyphenyl)thieno[2,3-d]pyrimidin-4-yl]oxy}-3-(2-methoxyphenyl)propanoic acid], the IC50 in experiment [1] (Homo sapiens, NCI-H929, 48 h) was found to be 0.417 µM; on Mcl-1 protein (setting [3]), 3.1e-08 M.

On to `CCOCCn1nccc1COc1ccccc1CC(Oc1ncnc2sc(-c3ccc(F)cc3)c(-c3ccc(OCCN(C)C)c(Cl)c3C)c12)C(=O)O` [Example 754, (2R)-2-{[(5Sa)-5-{3-chloro-4-[2-(dimethylamino)ethoxy]-2-methylphenyl}-6-(4-fluorophenyl)thieno[2,3-d]pyrimidin-4-yl]oxy}-3-(2-{[1-(2-ethoxyethyl)-1H-pyrazol-5-yl]methoxy}phenyl)propanoic acid], for which the IC50 was 0.089 µM in experiment [1] (Homo sapiens, NCI-H929, 48 h) and 4.7e-09 M on Mcl-1 protein (setting [3]).

`Cc1c(-c2c(-c3ccc(F)cc3)sc3ncnc(OC(Cc4ccccc4OCc4cccc(-c5ccco5)n4)C(=O)O)c23)ccc(OCCN2CCN(C)CC2)c1Cl` [Example 11, (2R)-2-{[(5Sa)-5-{3-chloro-2-methyl-4-[2-(4-methylpiperazin-1-yl)ethoxy]phenyl}-6-(4-fluorophenyl)thieno[2,3-d]pyrimidin-4-yl]oxy}-3-(2-{[6-(furan-2-yl)pyridin-2-yl]methoxy}phenyl)propanoic acid]: the half-inhibitory concentration (IC50) in experiment [1] (Homo sapiens, NCI-H929, 48 h) was determined as 0.13 µM; at Mcl-1 protein (setting [2]) it was 4.4e-08 M.

In the case of `Cc1c(-c2c(-c3ccc(F)cc3)sc3ncnc(OC(Cc4ccccc4OCc4cnccn4)C(=O)O)c23)ccc(OCCCN(C)C)c1Cl` [Example 147, (2R)-2-{[(5Sa)-5-{3-chloro-4-[3-(dimethylamino)propoxy]-2-methylphenyl}-6-(4-fluorophenyl)thieno[2,3-d]pyrimidin-4-yl]oxy}-3-[2-(pyrazin-2-ylmethoxy)phenyl]propanoic acid], the half-inhibitory concentration (IC50) in experiment [1] (Homo sapiens, NCI-H929, 48 h) was determined as 0.787 µM; on Mcl-1 protein (setting [2]) it was 2.4e-08 M.

With `Cc1c(-c2c(-c3ccc(F)o3)sc3ncnc(OC(Cc4ccccc4OCCN(C)C)C(=O)O)c23)ccc(OCCN2CCN(C)CC2)c1Cl` [Example 192, (2R)-2-{[(5Sa)-5-{3-chloro-2-methyl-4-[2-(4-methylpiperazin-1-yl)ethoxy]phenyl}-6-(5-fluorofuran-2-yl)thieno[2,3-d]pyrimidin-4-yl]oxy}-3-{2-[2-(dimethylamino)ethoxy]phenyl}propanoic acid], the IC50 in experiment [1] (Homo sapiens, NCI-H929, 48 h) is 0.848 µM; at Mcl-1 protein (setting [2]), 7.7e-09 M.

For the molecule `CC#Cc1sc2ncnc(OC(Cc3ccccc3OC)C(=O)O)c2c1-c1ccc(OCCN2CCN(C)CC2)c(F)c1C` [Example 687, (2R)-2-{[(5Sa)-5-{3-fluoro-2-methyl-4-[2-(4-methylpiperazin-1-yl)ethoxy]phenyl}-6-(prop-1-yn-1-yl)thieno[2,3-d]pyrimidin-4-yl]oxy}-3-(2-methoxyphenyl)propanoic acid], the IC50 amounted to 3.66 µM in experiment [1] (Homo sapiens, NCI-H929, 48 h) and 2.9e-08 M at Mcl-1 protein (setting [3]).

For `COc1ccccc1CC(Oc1ncnc2sc(-c3ccco3)c(-c3ccc(OCCN4CCN(C(C)C)CC4)c(Cl)c3C)c12)C(=O)O` [Example 324, (2R)-2-{[(5Sa)-5-(3-chloro-2-methyl-4-{2-[4-(propan-2-yl)piperazin-1-yl]ethoxy}phenyl)-6-(furan-2-yl)thieno[2,3-d]pyrimidin-4-yl]oxy}-3-(2-methoxyphenyl)propanoic acid], the IC50 was found to be 0.254 µM in experiment [1] (Homo sapiens, NCI-H929, 48 h) and 1.5e-08 M on Mcl-1 protein (setting [2]).

In the case of `COCCOc1ccc(-c2sc3ncnc(OC(Cc4ccccc4OCc4ccnn4CC(F)(F)F)C(=O)O)c3c2-c2ccc(OCCN3CCN(C)CC3)c(Cl)c2C)cn1` [Example 694, (2R)-2-[((5Sa)-5-{3-chloro-2-methyl-4-[2-(4-methylpiperazin-1-yl)ethoxy]phenyl}-6-[6-(2-methoxyethoxy)pyridin-3-yl]thieno[2,3-d]pyrimidin-4-yl)oxy]-3-(2-{[1-(2,2,2-trifluoroethyl)-1H-pyrazol-5-yl]methoxy}phenyl)propanoic acid], the IC50 in experiment [1] (Homo sapiens, NCI-H929, 48 h) came to 0.183 µM; at Mcl-1 protein (setting [3]), 6.4e-09 M.

Consider `CCN1CCN(CCOc2ccc(-c3c(-c4ccc(F)cc4)sc4ncnc(OC(Cc5ccccc5OCc5ccnc(-c6ccccc6F)n5)C(=O)O)c34)c(C)c2Cl)CC1` [Example 745, (2R)-2-{[(5Sa)-5-{3-chloro-4-[2-(4-ethylpiperazin-1-yl)ethoxy]-2-methylphenyl}-6-(4-fluorophenyl)thieno[2,3-d]pyrimidin-4-yl]oxy}-3-(2-{[2-(2-fluorophenyl)pyrimidin-4-yl]methoxy}phenyl)propanoic acid], for which the IC50 turned out to be 0.003 µM in experiment [1] (Homo sapiens, NCI-H929, 48 h) and 9.48e-10 M at Mcl-1 protein (setting [3]).

For `Cc1ncc(COc2ccccc2CC(Oc2ncnc3sc(-c4ccco4)c(-c4ccc(OCCN5CCN(C)CC5)c(Cl)c4C)c23)C(=O)O)cn1` [Example 271, (2R)-2-{[(5Sa)-5-{3-chloro-2-methyl-4-[2-(4-methylpiperazin-1-yl)ethoxy]phenyl}-6-(furan-2-yl)thieno[2,3-d]pyrimidin-4-yl]oxy}-3-{2-[(2-methylpyrimidin-5-yl)methoxy]phenyl}propanoic acid], the IC50 in experiment [1] (Homo sapiens, NCI-H929, 48 h) came out at 0.197 µM; on Mcl-1 protein (setting [2]), 1.6e-08 M.

Consider `Cc1c(-c2c(-c3ccc(F)o3)sc3ncnc(OC(Cc4ccccc4OCc4ccc(F)cn4)C(=O)O)c23)ccc(OCCN2CCN(C)CC2)c1Cl` [Example 163, (2R)-2-{[(5Sa)-5-{3-chloro-2-methyl-4-[2-(4-methylpiperazin-1-yl)ethoxy]phenyl}-6-(5-fluorofuran-2-yl)thieno[2,3-d]pyrimidin-4-yl]oxy}-3-{2-[(5-fluoropyridin-2-yl)methoxy]phenyl}propanoic acid], for which the IC50 came out at 0.047 µM in experiment [1] (Homo sapiens, NCI-H929, 48 h) and 1.2e-08 M on Mcl-1 protein (setting [2]).

As for `CCCCn1nccc1COc1ccccc1CC(Oc1ncnc2sc(-c3ccc(OC)nc3)c(-c3ccc(OCCN4CCN(C)CC4)c(Cl)c3C)c12)C(=O)O` [Example 608, (2R)-3-{2-[(1-butyl-1H-pyrazol-5-yl)methoxy]phenyl}-2-{[(5Sa)-5-{3-chloro-2-methyl-4-[2-(4-methylpiperazin-1-yl)ethoxy]phenyl}-6-(6-methoxypyridin-3-yl)thieno[2,3-d]pyrimidin-4-yl]oxy}propanoic acid], the concentration for half-maximal inhibition (IC50) in experiment [1] (Homo sapiens, NCI-H929, 48 h) is 0.021 µM; on Mcl-1 protein (setting [3]), 4.2e-09 M.

On to `COc1ccccc1CC(Oc1ncnc2sc(-c3ccco3)c(-c3ccc(OCC4CCN(C)CC4)c(Cl)c3C)c12)C(=O)O` [Example 311, (2R)-2-{[(5Sa)-5-{3-chloro-2-methyl-4-[(1-methylpiperidin-4-yl)methoxy]phenyl}-6-(furan-2-yl)thieno[2,3-d]pyrimidin-4-yl]oxy}-3-(2-methoxyphenyl)propanoic acid], for which the IC50 in experiment [1] (Homo sapiens, NCI-H929, 48 h) amounted to 1.59 µM; on Mcl-1 protein (setting [2]), 1.5e-08 M.

As for `Cc1c(-c2c(-c3ccc(F)cc3)sc3ncnc(OC(Cc4ccccc4OCc4cccc(N5CCOCC5)n4)C(=O)O)c23)ccc(OCCN2CCN(C)CC2)c1Cl` [Example 12, (2R)-2-{[(5Sa)-5-{3-chloro-2-methyl-4-[2-(4-methylpiperazin-1-yl)ethoxy]phenyl}-6-(4-fluorophenyl)thieno[2,3-d]pyrimidin-4-yl]oxy}-3-(2-{[6-(morpholin-4-yl)pyridin-2-yl]methoxy}phenyl)propanoic acid], the IC50 in experiment [1] (Homo sapiens, NCI-H929, 48 h) is 0.076 µM; at Mcl-1 protein (setting [2]), 1.6e-08 M.

Turning to `Cc1c(-c2c(-c3ccc(F)cc3)sc3ncnc(OC(Cc4ccccc4OCc4cnccn4)C(=O)O)c23)ccc(OCC2CCN(C)C2)c1Cl` [Example 140, (2R)-2-{[(5Sa)-5-(3-chloro-2-methyl-4-{[(3S)-1-methylpyrrolidin-3-yl]methoxy}phenyl)-6-(4-fluorophenyl)thieno[2,3-d]pyrimidin-4-yl]oxy}-3-[2-(pyrazin-2-ylmethoxy)phenyl]propanoic acid], the IC50 turned out to be 0.205 µM in experiment [1] and 2.2e-08 M on Mcl-1 protein (setting [2]).

As for `Cc1c(-c2c(-c3ccc(Cl)o3)sc3ncnc(OC(Cc4ccccc4OCC(F)(F)F)C(=O)O)c23)ccc(OCCN2CCN(C)CC2)c1Cl` [Example 365, (2R)-2-{[6-(5-chlorofuran-2-yl)-(5Sa)-5-{3-chloro-2-methyl-4-[2-(4-methylpiperazin-1-yl)ethoxy]phenyl}thieno[2,3-d]pyrimidin-4-yl]oxy}-3-[2-(2,2,2-trifluoroethoxy)phenyl]propanoic acid], the IC50 in experiment [1] (Homo sapiens, NCI-H929, 48 h) is 0.026 µM; on Mcl-1 protein (setting [2]), 5.9e-09 M.

Consider `Cc1ccccc1CC(Oc1ncnc2sc(-c3ccco3)c(-c3ccc(OCCN4CCN(C)CC4)c(Cl)c3C)c12)C(=O)O` [Example 354, (2R)-2-{[(5Sa)-5-{3-chloro-2-methyl-4-[2-(4-methylpiperazin-1-yl)ethoxy]phenyl}-6-(furan-2-yl)thieno[2,3-d]pyrimidin-4-yl]oxy}-3-(2-methylphenyl)propanoic acid], for which the IC50 in experiment [1] (Homo sapiens, NCI-H929, 48 h) was 0.544 µM; at Mcl-1 protein (setting [2]), 1.1e-08 M.

As to `COc1ccccc1CC(Oc1ncnc2sc(-c3cccc(O)c3)c(-c3ccc(OCCN4CCN(C)CC4)c(Cl)c3C)c12)C(=O)O` [Example 553, (2R)-2-{[(5Sa)-5-{3-chloro-2-methyl-4-[2-(4-methylpiperazin-1-yl)ethoxy]phenyl}-6-(3-hydroxyphenyl)thieno[2,3-d]pyrimidin-4-yl]oxy}-3-(2-methoxyphenyl)propanoic acid], the IC50 in experiment [1] (Homo sapiens, NCI-H929, 48 h) came to 0.585 µM; at Mcl-1 protein (setting [3]), 1.1e-08 M.
